These results are taken from patent US5942523A, “Compounds which are selective antagonists of the human NK3 receptor and their use as medicinal products and diagnostic tools” (Sanofi, priority 1994, dated 1999).

One assay addresses T1, human NK3 receptor (Homo sapiens, UniProt P29371).
T1 construct: expressed in transfected cells; host or cells: CHO cells
T1 sequence (P29371 1-465): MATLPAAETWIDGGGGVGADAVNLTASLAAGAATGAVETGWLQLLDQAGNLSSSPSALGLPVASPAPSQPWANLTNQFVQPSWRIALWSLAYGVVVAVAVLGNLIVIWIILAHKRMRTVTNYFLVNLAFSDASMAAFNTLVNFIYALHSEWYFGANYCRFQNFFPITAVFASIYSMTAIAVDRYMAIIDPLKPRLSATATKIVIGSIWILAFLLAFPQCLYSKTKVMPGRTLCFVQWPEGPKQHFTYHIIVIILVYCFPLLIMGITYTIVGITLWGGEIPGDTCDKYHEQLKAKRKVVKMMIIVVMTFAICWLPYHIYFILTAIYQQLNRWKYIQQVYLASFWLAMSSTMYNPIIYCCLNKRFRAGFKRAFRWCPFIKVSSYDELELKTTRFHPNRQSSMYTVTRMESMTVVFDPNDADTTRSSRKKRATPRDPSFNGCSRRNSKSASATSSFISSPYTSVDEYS
The assay is described as follows: binding of [^125 I]His[MePhe^7 ]NKB to the cloned human NK3 receptors expressed by CHO cells. As to conditions: from comparison of Ki values for human NK3 and other tachykinin receptors. The method, then: In studies on the binding of a ligand, the inhibition constant Ki is defined by the Cheng-Prusoff equation (in Receptor Binding in Drug Research, eds. R. A. O'BRIEN. Marcel Dekker, New York, 1986): [formula] [L]: ligand concentration Kd: dissociation constant of the ligand,
The affinity of the compounds of formula (I') for the tachykinin receptors was evaluated in vitro by several biochemical assays using radioligands:
3) The binding of [^125 I]His[MePhe^7 ]NKB to the NK3 receptors of rat cerebral cortex, of guinea pig cerebral cortex and of gerbil cerebral cortex as well as to the cloned human NK3 receptors expressed by CHO cells (Buell et al., FEBS Letters, 1992, 299, 90-95).
The assays were carried out according to X. Emonds-Alt et al. (Eur. J. Pharmacol., 1993, 250, 403-413).

The subject of assay [1] is NK3 receptor. The assay is described as follows: hypertension induced by intravenous or intracerebroventricular injection of senktide in guinea pigs. The following applies: agonist alone. The format is in vivo, guinea pig. How it is done: (§1) The compounds according to the present invention were also evaluated in vivo on two animal models.
The subject of assay [2] is NK3 receptor. The assay is described as follows: rotating behavior induced by intrastriatal administration of senktide in gerbils. The format is in vivo. As to conditions: unilateral application in the gerbil striatum; agonist alone. How it is done: as §1

Residues, ends and D or L forms follow the SMILES beside them.

`CN(CC(CCCN1CCC(O)(c2ccccc2)CC1)c1ccc(Cl)c(Cl)c1)C(=O)c1ccccc1.Cl` (stereo not shown) [Example 22 of Application EP 474561, N-Methyl-N-[2-(3,4-dichlorophenyl)-5-(4-hydroxy-4-phenylpiperid-1-yl)pentyl]benzamide hydrochloride]: the “selectivity / specificity for the human NK3 receptor” value on human NK3 receptor is reported as “high specificity”.
With `Cl.O=C1CCC(CCN2CCC(O)(c3ccccc3)CC2)(c2ccc(Cl)c(Cl)c2)CN1Cc1ccccc1` (stereo not shown) [compound A, 5-[2-(4-hydroxy-4-phenylpiperid-1-yl)ethyl]-5-(3,4-dichlorophenyl)-1-benzylpiperid-2-one hydrochloride], the “selectivity / specificity for the human NK3 receptor” value at human NK3 receptor was “not selective for the human NK3 receptor”.
Regarding `CSCC[C@H](NC(=O)[C@H](CC(C)C)NC(=O)CNC(=O)[C@H](Cc1ccccc1)N(C)C(=O)[C@H](Cc1ccccc1)NC(=O)[C@H](CC(=O)O)NC(=O)CCC(=O)O)C(N)=O` [senktide] (HELM PEPTIDE1{[O=C(O)CCC(=O)[*:2]].D.F.[meF].G.L.M.[am]}$$$$V2.0), the hypertension result in the assay on NK3 receptor [1] is listed as “induces a hypertension”. Further, the rotating behavior entry with NK3 receptor [2] is “strong contralateral rotations”.
